The text below walks through data of ChEMBL document CHEMBL1777745, “Non-oxime pyrazole based inhibitors of B-Raf kinase” (Bioorg Med Chem Lett, 2011).

In data set [1] the target is T1, Serine/threonine-protein kinase B-raf (Homo sapiens, UniProt P15056). Kind of data set: Inhibition of B-Raf.
Data set [2] deals with T1, Serine/threonine-protein kinase B-raf. Kind of data set: Inhibition of B-Raf-mediated ERK phosphorylation in cell-based assay.
A short description of data set [3]: Apparent permeability from apical to basolateral side in human Caco2 cells. As to conditions: caco-2. In kind it is ADME, cell-based.
In data set [4] the test system is Caco-2. Description: Efflux ratio of apparent permeability from […] in human Caco2 cells. In kind it is ADME, cell-based.
Data set [5] is described as follows: AUC in CD-1 mouse at 2.5 mg/kg, iv. The class given is ADME, organism-based. Details: dose 2.5 mg/kg, route intravenous. As to conditions: plasma.
Data set [6] can be described thus: Clearance in CD-1 mouse at 2.5 mg/kg, iv. The class given is ADME, organism-based. On the set-up: dose 2.5 mg/kg, route intravenous. As to conditions: in vivo.
Data set [7] can be described thus: Volume of distribution at steady state in CD-1 mouse at 2.5 mg/kg, iv. Details: dose 2.5 mg/kg, route intravenous. In kind it is ADME, organism-based. As to conditions: in vivo, read-out: Vdss.
Data set [8] can be described thus: AUC in CD-1 mouse at 25 mg/kg, po. The class given is ADME, organism-based. Details: dose 25 mg/kg, route oral. As to conditions: plasma.
Data set [9] is described as follows: AUC in CD-1 mouse at 50 mg/kg, po. In kind it is ADME, organism-based. On the set-up: dose 50 mg/kg, route oral. As to conditions: plasma.
The nature of data set [10]: AUC in CD-1 mouse at 100 mg/kg, po. In kind it is ADME, organism-based. On the set-up: dose 100 mg/kg, route oral. As to conditions: plasma.

T1 sequence (P15056 whole entry): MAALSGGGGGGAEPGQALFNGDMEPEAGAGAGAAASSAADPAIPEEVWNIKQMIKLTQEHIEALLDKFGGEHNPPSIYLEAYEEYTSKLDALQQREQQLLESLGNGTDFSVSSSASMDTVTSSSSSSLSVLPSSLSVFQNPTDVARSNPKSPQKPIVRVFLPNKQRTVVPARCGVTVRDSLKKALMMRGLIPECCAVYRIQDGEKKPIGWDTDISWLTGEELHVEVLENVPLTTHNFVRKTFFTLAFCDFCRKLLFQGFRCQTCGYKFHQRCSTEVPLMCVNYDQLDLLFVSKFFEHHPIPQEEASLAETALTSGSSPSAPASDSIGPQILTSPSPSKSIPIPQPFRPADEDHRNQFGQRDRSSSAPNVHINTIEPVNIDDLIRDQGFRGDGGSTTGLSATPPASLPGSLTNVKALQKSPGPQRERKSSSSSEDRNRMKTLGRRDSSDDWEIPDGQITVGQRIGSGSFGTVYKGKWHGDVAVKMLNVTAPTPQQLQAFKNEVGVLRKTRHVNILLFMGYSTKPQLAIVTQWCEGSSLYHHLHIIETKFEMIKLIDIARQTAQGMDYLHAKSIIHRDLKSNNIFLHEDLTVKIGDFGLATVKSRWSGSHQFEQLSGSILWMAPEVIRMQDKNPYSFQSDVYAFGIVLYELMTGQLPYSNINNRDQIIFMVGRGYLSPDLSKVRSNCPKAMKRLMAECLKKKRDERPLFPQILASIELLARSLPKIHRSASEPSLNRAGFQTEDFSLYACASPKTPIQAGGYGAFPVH

The term IC50 denotes the concentration at which inhibition is half-maximal. In data set [1], `Cn1cc(-c2ccc3[nH]ccc3c2)c(-c2ccncc2)n1` displayed an IC50 of 861 nM. `Cn1cc(-c2ccc(-c3c[nH]nn3)cc2)c(-c2ccncc2)n1` yielded an IC50 in data set [1] of 55 nM.

Turning to `Cn1cc(-c2ccc3[nH]ncc3c2)c(-c2ccncc2)n1`, in [1], the IC50 was > 1000 nM. Regarding `F[C@H]1CNCC[C@@H]1n1cc(-c2ccc3c(c2)Cc2c[nH]nc2-3)c(-c2ccncc2)n1`, the concentration for half-maximal inhibition (IC50) was found to be 1.25 nM in [1] and 672 nM in data set [2]. With `N[C@H]1CC[C@@H](n2cc(-c3ccc4c(c3)Cc3c[nH]nc3-4)c(-c3ccncc3)n2)CC1`, the IC50 amounted to 22.9 nM in data set [1] and 1520 nM in [2]. For `N[C@H]1CC[C@H](n2cc(-c3ccc4c(c3)Cc3c[nH]nc3-4)c(-c3ccncc3)n2)CC1`, the IC50 in data set [1] was determined as 0.66 nM; in data set [2], 396 nM.

`F[C@H]1CNCC[C@H]1n1cc(-c2ccc3c(c2)Cc2c[nH]nc2-3)c(-c2ccncc2)n1`: the IC50 in data set [1] came out at 3.8 nM; in data set [2], 407 nM. Turning to `Cn1cc(-c2ccc3c(c2)Cc2n[nH]nc2-3)c(-c2ccncc2)n1`, the IC50 in data set [1] was determined as 11 nM. As to `Cn1cc(-c2ccc3c(c2)CCc2n[nH]cc2-3)c(-c2ccncc2)n1`, in [1], the half-inhibitory concentration (IC50) is > 1000 nM. `Cn1cc(-c2cccc3[nH]ncc23)c(-c2ccncc2)n1` showed a 50% inhibitory concentration (IC50) in data set [1] of 468 nM. Turning to `O[C@@H]1CCC[C@H](n2cc(-c3ccc4c(c3)Cc3c[nH]nc3-4)c(-c3ccncc3)n2)C1`, the IC50 was found to be 2 nM in data set [1] and 607 nM in data set [2]. In the same order, the values of `F[C@@H]1CNCC[C@H]1n1cc(-c2ccc3c(c2)Cc2c[nH]nc2-3)c(-c2ccncc2)n1` (stereo in doubt; 41) are 1.6 nM and 532 nM.

Compound `Cc1c[nH]nc1-c1ccc(-c2cn(C)nc2-c2ccncc2)cc1` displayed an IC50 in [1] of 7 nM. Turning to `c1cc(-c2nn(C3CC4COCC(C3)N4)cc2-c2ccc3c(c2)Cc2c[nH]nc2-3)ccn1` (configuration not stated), the 50% inhibitory concentration (IC50) amounted to 5 nM in data set [1] and 619 nM in [2].

As for `c1cc(-c2nn(C3CCCNC3)cc2-c2ccc3c(c2)Cc2c[nH]nc2-3)ccn1` (configuration not stated), the half-inhibitory concentration (IC50) in [1] is 3.7 nM; in data set [2], 1670 nM.

On to `CNCCn1cc(-c2ccc3c(c2)Cc2c[nH]nc2-3)c(-c2ccncc2)n1`, for which the results for the IC50 in data set [1] and in [2] were 72.5 nM and 8160 nM, respectively. Take `Cn1cc(N)c(-c2ccncc2)n1`: in data set [1], the IC50 was > 1000 nM.

Regarding `Cn1cc(-c2ccc3c(c2)CCc2c[nH]nc2-3)c(-c2ccncc2)n1`, the IC50 in [1] was determined as 23 nM. A word on the Papp A→B: it is the apparent permeability from the apical to the basolateral side of a cell layer. As for `c1cc(-c2nn(C3CCNCC3)cc2-c2ccc3c(c2)Cc2c[nH]nc2-3)ccn1`, the IC50 in [2] turned out to be 230 nM. Also, in data set [3], the Papp A→B stood at 1.88 ×10⁻⁶ cm/s. For the same compound, the Ratio in data set [4] came out at 6.17.

`CNC(=O)c1ccc(-c2cn(C)nc2-c2ccncc2)cc1` yielded an IC50 in data set [1] of 647 nM. With `Cn1cc(-c2ccc3c(O)cccc3c2)c(-c2ccncc2)n1`, the IC50 in [1] was found to be 1.4 nM. As for `c1cc(-c2nn(C3CC4CCC(C3)N4)cc2-c2ccc3c(c2)Cc2c[nH]nc2-3)ccn1` (configuration not stated), the IC50 in data set [1] came out at 0.57 nM; in data set [2], 262 nM. For `CN1CCC(n2cc(-c3ccc4c(c3)Cc3c[nH]nc3-4)c(-c3ccncc3)n2)CC1`, the IC50 in [1] was 8 nM; in [2] it was 886 nM. Consider `CCc1c[nH]nc1-c1ccc(-c2cn(C)nc2-c2ccncc2)cc1`, for which, in data set [1], the IC50 was > 1000 nM. For `F[C@H]1CCNC[C@H]1n1cc(-c2ccc3c(c2)Cc2c[nH]nc2-3)c(-c2ccncc2)n1`, the 50% inhibitory concentration (IC50) amounted to 3.2 nM in data set [1] and 2120 nM in [2].

One may read the AUC as the area under the concentration-time curve, a measure of exposure. A low value points to less exposure. One may read the clearance as the rate of elimination divided by the concentration. `F[C@@H]1CNCC[C@H]1n1cc(-c2ccc3c(c2)Cc2c[nH]nc2-3)c(-c2ccncc2)n1` (stereo in doubt; 38): the IC50 amounted to 1.4 nM in data set [1] and 700 nM in data set [2]. Further, in [3], the apparent permeability from apical to basolateral (Papp A→B) worked out at 11.4 ×10⁻⁶ cm/s. Also, the Ratio in [4] turned out to be 1.55. Moreover, the AUC came to 406 ng·h/mL in [5], 5160 ng·h/mL in data set [8], 13400 ng·h/mL in data set [9] and 38800 ng·h/mL in [10]. Moreover, the clearance in [6] was 91.1 mL/min/kg. For the same compound, the Vd in data set [7] is 8.74 L/kg. In the case of `c1cc(-c2nn(C3CCCNCC3)cc2-c2ccc3c(c2)Cc2c[nH]nc2-3)ccn1` (configuration not stated), the IC50 in data set [1] amounted to 3.2 nM; in [2], 1540 nM. Take `Cn1cc(-c2ccc3cc(O)ccc3c2)c(-c2ccncc2)n1`: in [1], 77 nM corresponded to half-maximal inhibition (IC50). In turn, `Cn1cc(-c2ccc(-c3cc[nH]c3)cc2)c(-c2ccncc2)n1` yielded an IC50 in data set [1] of 788 nM.

Compound `Cn1cc(-c2ccc3c(c2)CNC3=O)c(-c2ccncc2)n1` returned an IC50 in data set [1] of 94 nM. For `c1ccc(-n2cc(-c3ccc4c(c3)Cc3c[nH]nc3-4)c(-c3ccncc3)n2)cc1`, the half-maximal inhibitory concentration (IC50) was determined as 4.6 nM in data set [1] and 4370 nM in [2].

Take `Cn1cc(-c2ccc3cn[nH]c3c2)c(-c2ccncc2)n1`: in data set [1], it took 139 nM to reach half-maximal inhibition (IC50). As to `O[C@@H]1CNCC[C@H]1n1cc(-c2ccc3c(c2)Cc2c[nH]nc2-3)c(-c2ccncc2)n1`, the figures for the IC50 in [1] and in data set [2] were 4.9 nM and 4870 nM, respectively.

In the case of `Cn1cc(O)c(-c2ccncc2)n1`, in data set [1], the IC50 is > 1000 nM. On the same count and under the same terms, the same measure for `Cn1cc(-c2ccc3cc[nH]c3c2)c(-c2ccncc2)n1`: 328 nM; for `Cn1cc(-c2ccc(S(N)(=O)=O)cc2)c(-c2ccncc2)n1`: > 1000 nM.
